Patent US20260000642A1 (Tay Therapeutics Limited, priority 2022, published 2026)
“And” between values parts separate entries of the source, which are not always exact repeats. Equal entries are not always repeated.

Assays:
[1] = Sprague-Dawley rat pharmacokinetics (IV and PO); type: in vivo; conditions: rat, plasma; male Sprague-Dawley rats, PO 5 mg/kg (IV 1 mg/kg), cassette mode, Method 1; read-out: PO F (%)
Procedure, shortened: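 Male Sprague-Dawley rats (2 per arm) dosed in cassette (up to 5 compounds) at 1 mg/kg IV and 5 mg/kg PO, formulated in 5% DMSO/40% PEG-400/55% water. Plasma sampled over time, acetonitrile-precipitated with internal standard, and quantified by LC/MS/MS against matrix-matched standards.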

IL-17A = test: Human PBMC assay, IL-17A by ELISA (CD2/CD3/CD28 bead stimulation); type: cell-based; conditions: 72 hours
Description: CD2, CD3, and CD28 antibody-coated beads from the T-cell activation/expansion kit (Miltenyi Biotec) were added to the PBMC at a bead-to-cell ratio of 1:2. The mixture of PBMCs and beads were seeded into the wells of the round-bottom 96-well plate at a concentration of 2×10^5 cells/well in a total volume of 200 μL. The cells were cultured for 72 hours at 37° C. and 5% CO2 and then supernatants were collected and IL-17A and IL-22 levels were measured by ELISA. […] The final compound concentration ranged from 30,000 nM to 0.005 nM and the final DMSO concentration per well was 0.3%. PBMCs were seeded at approximately […] in the wells of the 96-well tissue culture plate in a total volume of 190 μL. The plate was incubated for 1 hour at 37° C. and 5% CO2. […] The cells were then cultured for 24 hours at 37° C. and 5% CO2. The supernatant was collected and CXCL10 levels were measured by ELISA.

[2] = test system: UUO renal fibrosis in rats; test: Unilateral Urethral Obstruction (UUO) rat renal fibrosis model: body weight, clinical observations, nephropathy scores; type: in vivo; set-up: Glomerulosclerosis clinical score / Interstitial nephritis clinical score / Collagen fiber deposition clinical score / Nephropathy clinical score: scale not given here; conditions: for Body weight: individual animals ID 1-8; for Clinical Observation: — = no finding, cells wrap: soft/stool, Anal/dirty
Source text: Unilateral Urethral Obstruction (UUO) is a complex model of renal fibrosis (RF) disease. RF is a common outcome in progressive chronic kidney diseases, characterized by excessive formation of internal scar tissue. Surgical obstruction of urine flow can be used to trigger this disease in rodents. The UUO model allows for evaluation of potential drugs as treatment for RF.
Experimental groups for the study are outlined in Table 10. […] Briefly, animals were anesthetized using a Zoletil/Xylazine mixture (20:1, v:v) for a final dose of 25 mg/kg. The operation area was disinfected with 75% alcohol before shaving. Rats in UUO group were exposed left ureter through a small incision on the left side of the abdomen and ligated with 3-0 silk at two locations about 0.5 cm below the renal hilum. The ureters of sham rats in Group 1 were manipulated but not ligated.
Starting on Day 0, animals in group 2 were administered daily doses of the vehicle for 14 days.
Clinical signs for all animals were monitored and recorded daily. Blind clinical nephropathy scores were conducted for all animals in the study. Glomerulosclerosis, interstitial nephritis, collagen fiber deposition, nephropathy were each assessed for all experimental rats, and a total clinical score was determined for each rat. The scoring system represented the degree or percentage of lesions in the whole kidney. Clinical score assessments were performed on Day 14.
Starting on Day 0, animals in group 2 were administered daily doses of the vehicle for 14 days. […] A design of the UUO study is depicted in FIG. 9B.
Blind clinical nephropathy scores were conducted for all animals in the study. Glomerulosclerosis, interstitial nephritis, collagen fiber deposition, and nephropathy were each assessed for all experimental rats, and a total clinical score was determined for each rat. The scoring system represented the degree or percentage of lesions in the whole kidney. Clinical score assessments were performed on Day 14.

[3] = test system: Col1a1, TGF-b1, MCP-1, IL-1b, IL-6, IL-17, TNF-a, and Timp1; test: UUO model: kidney tissue biomarker mRNA by RT-PCR; type: in vivo, rat; conditions: UUO rats; 30 mg/kg
Source text: Serum for blood biochemistry analysis was collected into centrifuge tubes without coagulant four hours after final dosing. Blood plasma samples from group 3 was collected into tubes with K2EDTA four hours after final dosing. At the conclusion of the study (end of the 14-day period), animals were euthanized. Kidney tissue was collected four hours after final dosing. Ligated side kidney was divided into three copies 1/3 fix into 10% formalin for H&E analysis, 1/3 into RNA for PCR analysis of tissue biomarkers Col1a1, TGF-b1, MCP-1, IL-1b, IL-6, IL-17, TNF-a, and Timp1, and 1/3 for hydroxyproline assay analyzed by ELISA. RNA was extracted from tissue using the RNeasy mini kit (Qiagen). RNA concentration was measured using a NanoDrop One Spectrophotometer (ThermoFisher) and converted to cDNA using a High-Capacity RNA-to-cDNA kit (Invitrogen). RT-PCR was performed to measure levels of mRNA of different targets using TaqMan® Gene Expression Master Mix and TaqMan® probe/primer sets on a QuantStudio 6 Real-Time PCR System (ThermoFisher). Fold change in target gene expression was determined using the ΔΔCt method.

[4] = UUO rats, individual animals No. 1-8

CNC(=O)c1[nH]c(C(=O)NC2CCC2)cc1O[C@@H](C)c1ccccc1 [Example 101, N^5-cyclobutyl-N^2-methyl-3-(1-phenylethoxy)-1H-pyrrole-2,5-dicarboxamide]
bioavailability [1]: 66%
IC50 for IL-17A relative to GSK620 (IL-17A): substantially lower 1050
clinical symptoms associated with UUO (overall conclusion) ([2]; 30 mg/kg): ameliorates clinical symptoms associated with UUO
Body weight ([2]; UUO rats, 30 mg/kg, Day 5, 30 mg/kg): 310 g
Body weight ([2]; UUO rats, 30 mg/kg, Day 7, 30 mg/kg): 270 g
Body weight ([2]; UUO rats, 30 mg/kg, Day 8, 30 mg/kg): 260 g and 290 g
Body weight ([2]; UUO rats, 30 mg/kg, Day 10, 30 mg/kg): 330 g (2×) and 320 g
Body weight ([2]; UUO rats, 30 mg/kg, Day 11, 30 mg/kg): 300 g and 330 g
Body weight ([2]; UUO rats, 30 mg/kg, Day 12, 30 mg/kg): 260 g and 310 g and 300 g and 340 g
Collagen fiber deposition clinical score [2, 4]: 2 (2×) and 1 (6×)
Glomerulosclerosis clinical score [2, 4]: 0
Interstitial nephritis clinical score [2, 4]: 3 (5×) and 2 (3×)
Nephropathy clinical score [2, 4]: 2 (2×) and 1 (6×)
Clinical Observation ([2]; UUO rats, individual animals No. 1-8, Day 3): diarrhea
Clinical Observation ([2]; UUO rats, individual animals No. 1-8, Day 5): Anal
Clinical Observation ([2]; UUO rats, individual animals No. 1-8, Day 6): Anal
Clinical Observation ([2]; UUO rats, individual animals No. 1-8, Day 7): Anal
Clinical Observation ([2]; UUO rats, individual animals No. 1-8, Day 8): soft
Clinical Observation ([2]; UUO rats, individual animals No. 1-8, Day 9): soft
Clinical Observation ([2]; UUO rats, individual animals No. 1-8, Day 10): soft
Clinical Observation ([2]; UUO rats, individual animals No. 1-8, Day 13): soft
Clinical Observation ([2]; UUO rats, individual animals No. 1-8, Day 14): Anal (2×) and soft
interstitial nephritis in representative pathology staining ([2]; UUO rats, 30 mg/kg (FIG. 13B)): mild interstitial nephritis
animals exhibiting diarrhea ([2]; UUO rats, 30 mg/kg, 14 days): One animal
animals exhibiting dirty anuses ([2]; UUO rats, 30 mg/kg, 14 days): Three animals
animals exhibiting soft stools ([2]; UUO rats, 30 mg/kg, 14 days): Four UUO rats
body weight over the 14-day study ([2]; UUO rats, 30 mg/kg, BID at 0 and 8 hours, 14 days (group 3)): slight weight loss over the first seven days of the study, and then gained weight over the remaining seven days
collagen fiber deposition score relative to UUO + vehicle ([2]; UUO rats, 30 mg/kg, Day 14): reduced
interstitial nephritis score relative to UUO + vehicle ([2]; UUO rats, 30 mg/kg, Day 14): reduced
nephropathy score relative to UUO + vehicle ([2]; UUO rats, 30 mg/kg, Day 14): reduced
total clinical scores relative to UUO + vehicle ([2]; UUO rats, 30 mg/kg, Day 14): reduced
expression of IL-17 relative to UUO + vehicle [3]: limited effect
expression of TNF-a relative to UUO + vehicle [3]: limited effect
tissue RNA level of Col1a1 relative to UUO + vehicle [3]: reduced
tissue RNA level of IL-1b relative to UUO + vehicle [3]: reduced
tissue RNA level of IL-6 relative to UUO + vehicle [3]: reduced
tissue RNA level of MCP-1 relative to UUO + vehicle [3]: reduced
tissue RNA level of TGB-b1 relative to UUO + vehicle [3]: reduced
tissue RNA level of Timp1 relative to UUO + vehicle [3]: reduced
